From patent US20130274235A1, “TREATMENT OF MOTOR NEURON DISEASE” (THE GENERAL HOSPITAL CORPORATION, priority 2010, published 2013)
Values joined by “and” are separate entries in the source; they are usually repeats but may differ in a detail not shown here. Equal entries are not always repeated. Structures can show the parent of a compound that is named as a salt. Where a SMILES comes first, the peptide text is derived from it.

Legend:
[1] = tested on: IGF-II mRNA; assay: IGF-II expression assay, qPCR detection, in primary spinal cord cultures; format: cell-based, mice; conditions: for induction of IGF-II expression (fold induction) / IGF-II inducing activity (in words): NSAID series, FIGS. 3 and 4; for induction of IGF-II expression (in words): antihypertensive agents, FIGS. 5 and 6
Procedure: Quantitative PCR utilizing SYBR green I (Molecular Probes, Eugene, Oreg.) or specific Taqman probes was used to confirm differential gene expression. RNA extracted from 100-200 LCMed motor neurons were reverse transcribed using Superscript III (Invitrogen). 2 μl of diluted cDNA was amplified (DNA Engine Opticon real-time PCR machine, Bio-Rad), in […] reactions containing 900 nM primer and 250 nM probe in Taqman Universal Master Mix (Applied Biosystems). Reactions were run in duplicate and each gene analyzed in at least three different animals. Reaction parameters were as follows: 50° C. for 2 min, 95° C. for 10 min, and 40 cycles of 95° C. for 15 s and 60° C. for 1 min. Controls lacking template and/or Superscript were included. The absolute copy number for each gene was quantified using a standard curve from human GAPDH plasmid and amplified products were normalized against rat GAPDH expression. Primers and probes (Integrated DNA technologies) were as follows: rat GAPDH: Forward primer: […]
Two libraries of FDA-approved drugs (NINDS and Harvard LDDN) were screened for their ability to up-regulate IGF-II expression. Candidate compounds were screened in an IGF-II expression assay using a qPCR detection methodology in primary spinal cord cultures or using a luciferase reporter assay. In the initial screening, therapeutic candidates were identified as those that increased IGF-II expression by at least 2-fold. […]

[2] = tested on: IGF-II protein; assay: IGF-II protein expression in primary spinal cord cultures, quantitated by ELISA; format: cell-based, mice
Description: Further results of the library screening identified the following therapeutic agents as having a significant inducing effect on IGF-II expression in primary spinal cord cultures and are useful for treating motor neuron disease. Protein expression was quantitated by ELISA.

O=C(O)Cc1ccccc1Nc1c(Cl)cccc1Cl [Diclofenac]
Fold Increase in IGF-II mRNA Expression [1]: 4.0 ± 1.1 fold
induction of IGF-II expression (fold induction) [1]: 3.4±1.3 fold
Fold Increase in IGF-II Protein Expression [2]: 1.1 fold
IGF-II Protein Expression (pg/ml in media) [2]: (112 ± 29) pg/ml

COCCCC/C(=N\OCCN)c1ccc(C(F)(F)F)cc1 [Fluvoxamine maleate]
Fold Increase in IGF-II mRNA Expression [1]: 4.8 fold

CN1CCCC(n2nc(Cc3ccc(Cl)cc3)c3ccccc3c2=O)CC1 (centres unmarked) [Azelastine HCl]
Fold Increase in IGF-II mRNA Expression [1]: 3.2 fold

N[C@@H](Cc1ccc(O)c(O)c1)C(=O)O [Levodopa]
Fold Increase in IGF-II mRNA Expression [1]: 3.5 fold

CNCC[C@@H](Oc1ccccc1C)c1ccccc1 [Atomoxetine HCl]
Fold Increase in IGF-II mRNA Expression [1]: 4.8 fold

Cc1onc(-c2c(Cl)cccc2Cl)c1C(=O)N[C@@H]1C(=O)N2[C@@H]1SC(C)(C)[C@@H]2C(=O)O [Dicloxacillin sodium]
Fold Increase in IGF-II mRNA Expression [1]: 3.2 fold

Cc1ncc(C[n+]2csc(CCO[P@](=O)(O)OP(=O)(O)O)c2C)c(N)n1 [Thiamine pyrophosphate]
Fold Increase in IGF-II mRNA Expression [1]: 4.1 ± 2.1 fold
Fold Increase in IGF-II Protein Expression [2]: 0.9 fold
IGF-II Protein Expression (pg/ml in media) [2]: (118 ± 42) pg/ml

COc1ccc(Cl)cc1C(=O)NCCc1ccc(S(=O)(=O)NC(=O)NC2CCCCC2)cc1 [Glyburide]
Fold Increase in IGF-II mRNA Expression [1]: 4.9 fold

CC(C)[C@H](N)C(=O)OCCOCn1cnc2c(=O)[nH]c(N)nc21 [Valacyclovir HCl]
Fold Increase in IGF-II mRNA Expression [1]: 4.2 ± 1.8 fold
Fold Increase in IGF-II Protein Expression [2]: 1.5 fold
IGF-II Protein Expression (pg/ml in media) [2]: (232 ± 4) pg/ml

Cc1cnc(NC(=O)C2=C(O)c3ccccc3S(=O)(=O)N2C)s1 [Meloxicam sodium]
Fold Increase in IGF-II mRNA Expression [1]: 4.1 fold

Cc1onc(-c2ccccc2)c1-c1ccc(S(N)(=O)=O)cc1 [valdecoxib]
IGF-II inducing activity (in words) [1]: strong IGF-II inducing activity

C[N+](C)(C)C[C@H](O)CC(=O)[O-] [Levocarnitine]
Fold Increase in IGF-II mRNA Expression [1]: 5.7 ± 1.1 fold
Fold Increase in IGF-II Protein Expression [2]: 1.7 fold
IGF-II Protein Expression (pg/ml in media) [2]: (258 ± 7) pg/ml

CCCCNc1cc(C(=O)O)cc(S(N)(=O)=O)c1Oc1ccccc1 [bumetanide]
induction of IGF-II expression (in words) [1]: most active

CC(C)NCC(O)COc1ccc(CC(N)=O)cc1 (centres unmarked) [atenolol]
induction of IGF-II expression (in words) [1]: most active

Cc1cc2nc3c(=O)[nH]c(=O)nc-3n(C[C@H](O)[C@H](O)[C@H](O)CO)c2cc1C [Riboflavin]
Fold Increase in IGF-II mRNA Expression [1]: 4.1 ± 1.9 fold
Fold Increase in IGF-II Protein Expression [2]: 1.5 fold
IGF-II Protein Expression (pg/ml in media) [2]: (205 ± 42) pg/ml

O=C(O)COCCN1CCN(C(c2ccccc2)c2ccc(Cl)cc2)CC1 (centres unmarked) [Cetirizine HCl]
Fold Increase in IGF-II mRNA Expression [1]: 5.8 fold

CCOC(=O)[C@@](C)(N)Cc1ccc(O)c(O)c1 [Methyldopate HCl]
Fold Increase in IGF-II mRNA Expression [1]: 4.3 fold
induction of IGF-II expression (in words) [1]: most active

terbutaline hemisulfate
induction of IGF-II expression (in words) [1]: most active

COc1ccc([C@@H]2Sc3ccccc3N(CCN(C)C)C(=O)[C@@H]2OC(C)=O)cc1 [Diltiazem HCl]
Fold Increase in IGF-II mRNA Expression [1]: 4.3 fold
induction of IGF-II expression (in words) [1]: most active

COc1cc2c(cc1OC)C(=O)C(CC1CCN(Cc3ccccc3)CC1)C2 (centres unmarked) [donepezil HCl]
induction of IGF-II expression (in words) [1]: most active

CN(C)CCCC1(c2ccc(F)cc2)OCc2cc(C#N)ccc21 (centres unmarked) [Citalopram]
Fold Increase in IGF-II mRNA Expression [1]: 3.4 fold

CCCN(CCC)CCc1cccc2c1CC(=O)N2 [Ropinirole]
Fold Increase in IGF-II mRNA Expression [1]: 4.5 ± 3.0 fold

Nc1nc(/C(=C/CC(=O)O)C(=O)N[C@@H]2C(=O)N3C(C(=O)O)=CCS[C@H]23)cs1 [Ceftibuten]
Fold Increase in IGF-II mRNA Expression [1]: 3.9 ± 2.7 fold

CCC(=O)NCC[C@@H]1CCc2ccc3c(c21)CCO3 [Ramelteon]
Fold Increase in IGF-II mRNA Expression [1]: 3.4 ± 1.3 fold
Fold Increase in IGF-II Protein Expression [2]: 1.5 fold
IGF-II Protein Expression (pg/ml in media) [2]: (201 ± 10) pg/ml

COC(=O)[C@H](Cc1ccccc1)NC(=O)[C@@H](N)CC(=O)O [Aspartame] (H-Asp-Phe-OMe)
Fold Increase in IGF-II mRNA Expression [1]: 5.5 ± 0.7 fold
Fold Increase in IGF-II Protein Expression [2]: 1.2 fold
IGF-II Protein Expression (pg/ml in media) [2]: (175 ± 1.7) pg/ml

CC(=O)OCC(=O)[C@@]1(O)[C@H](C)C[C@H]2[C@@H]3CCC4=CC(=O)C=C[C@]4(C)[C@@]3(F)[C@@H](O)C[C@@]21C [Dexamethasone acetate]
Fold Increase in IGF-II mRNA Expression [1]: 3.8 fold

Cc1ccc(-c2nc3ccc(C)cn3c2CC(=O)N(C)C)cc1 [Zolpidem]
Fold Increase in IGF-II mRNA Expression [1]: 6.1 fold

Cc1cc2c(s1)Nc1ccccc1N=C2N1CCN(C)CC1 [Olanzapine]
Fold Increase in IGF-II mRNA Expression [1]: 4.0 fold

COC(=O)C1=C(C)NC(C)=C(C(=O)OC)C1c1ccccc1[N+](=O)[O-] [Nifedipine]
Fold Increase in IGF-II mRNA Expression [1]: 6.6 ± 6.2 fold

CC(C)(C)NC[C@H](O)COc1nsnc1N1CCOCC1 [timolol maleate]
induction of IGF-II expression (in words) [1]: most active

O=C(O)c1cc(-c2ccc(F)cc2F)ccc1O [diflunisal]
IGF-II inducing activity (in words) [1]: strong IGF-II inducing activity

COc1ccc(-c2cc(C(F)F)nn2-c2ccc(S(N)(=O)=O)cc2)cc1F [deracoxib]
IGF-II inducing activity (in words) [1]: strong IGF-II inducing activity

CC(C(=O)O)c1ccc(-c2ccccc2)c(F)c1 (centres unmarked) [Flurbiprofen]
Fold Increase in IGF-II mRNA Expression [1]: 2.5 fold and 2.5 ± 0.5 fold
induction of IGF-II expression (fold induction) [1]: 2.5±0.5 fold
Fold Increase in IGF-II Protein Expression [2]: 1.2 fold
IGF-II Protein Expression (pg/ml in media) [2]: (121 ± 27) pg/ml

CC(C(=O)O)c1ccc2c(c1)[nH]c1ccc(Cl)cc12 (centres unmarked) [Carboprofen]
Fold Increase in IGF-II mRNA Expression [1]: 2.4 fold
IGF-II inducing activity (in words) [1]: strong IGF-II inducing activity

CN(C)CCCN1c2ccccc2Sc2ccc(Cl)cc21 [Chlorpromazine]
Fold Increase in IGF-II mRNA Expression [1]: 3.4 fold

CC(COc1ccccc1)N(CCCl)Cc1ccccc1 (centres unmarked) [phenoxybenzamine HCl]
induction of IGF-II expression (in words) [1]: most active

Clc1cccc(Cl)c1N=C1NCCN1 [clonidine HCl]
induction of IGF-II expression (in words) [1]: most active

CS(=O)(=O)c1ccc([C@@H](O)[C@@H](CO)NC(=O)C(Cl)Cl)cc1 [Thiamphenicol]
Fold Increase in IGF-II mRNA Expression [1]: 3.5 fold

COCCCOc1cc(C[C@@H](C[C@H](N)[C@@H](O)C[C@H](C(=O)NCC(C)(C)C(N)=O)C(C)C)C(C)C)ccc1OC [aliskiren hemifumarate]
induction of IGF-II expression (in words) [1]: most active

COc1ccccc1OCC(O)CO (centres unmarked) [Guaifenesin]
Fold Increase in IGF-II mRNA Expression [1]: 2.9 fold

Clc1ccc2c(c1)C(N1CCNCC1)=Nc1ccccc1O2 [Amoxapine]
Fold Increase in IGF-II mRNA Expression [1]: 4.1 ± 2.3 fold

COc1ccccc1OCCNCC(O)COc1cccc2[nH]c3ccccc3c12 (centres unmarked) [carvedilol]
induction of IGF-II expression (in words) [1]: most active

CN1CCC[C@@H]1Cc1c[nH]c2ccc(CCS(=O)(=O)c3ccccc3)cc12 [Eletriptan HBr]
Fold Increase in IGF-II mRNA Expression [1]: 4.3 fold

COc1ccc2[nH]c([S+]([O-])Cc3ncc(C)c(OC)c3C)nc2c1 (centres unmarked) [Omeprazole]
Fold Increase in IGF-II mRNA Expression [1]: 5.9 fold

CN1CCCC1c1cccnc1.O=C(O)C(O)C(O)C(=O)O.O=C(O)C(O)C(O)C(=O)O (centres unmarked) [Nicotine ditartrate]
Fold Increase in IGF-II mRNA Expression [1]: 4.8 ± 0.3 fold
Fold Increase in IGF-II Protein Expression [2]: 1.5 fold
IGF-II Protein Expression (pg/ml in media) [2]: (205 ± 26) pg/ml

CCCc1nc(C(C)(C)O)c(C(=O)OCc2oc(=O)oc2C)n1Cc1ccc(-c2ccccc2-c2nnn[nH]2)cc1 [Olmesartan medoxomil]
Fold Increase in IGF-II mRNA Expression [1]: 5.2 fold
induction of IGF-II expression (in words) [1]: most active

Nc1c2c(nc3ccccc13)CCCC2 [Tacrine HCl]
Fold Increase in IGF-II mRNA Expression [1]: 3.7 fold

CNCCC(Oc1ccc(C(F)(F)F)cc1)c1ccccc1 (centres unmarked) [Fluoxetine]
Fold Increase in IGF-II mRNA Expression [1]: 4.3 ± 2.3 fold

NC(=O)c1cccnc1 [Niacinamide]
Fold Increase in IGF-II mRNA Expression [1]: 5.0 ± 3.6 fold
Fold Increase in IGF-II Protein Expression [2]: 1.1 fold
IGF-II Protein Expression (pg/ml in media) [2]: (151 ± 45) pg/ml

NNc1nncc2ccccc12 [Hydralazine HCl]
Fold Increase in IGF-II mRNA Expression [1]: 6.3 fold
induction of IGF-II expression (in words) [1]: most active

NC(=O)C[S+]([O-])C(c1ccccc1)c1ccccc1 (centres unmarked) [Modafinil]
Fold Increase in IGF-II mRNA Expression [1]: 4.4 ± 4.0 fold
Fold Increase in IGF-II Protein Expression [2]: 1.4 fold
IGF-II Protein Expression (pg/ml in media) [2]: (213 ± 22) pg/ml
